Publication PMC3639963, “A New Class of Small Molecule Inhibitor of BMP Signaling” (PLoS ONE, 2013)
Values joined by “and” are separate entries in the source; they are usually repeats but may differ in a detail not shown here. Identical values can stand only once. “Also recorded” adds a separate entry of the source. Like-named read-outs stand apart in the source and are kept apart here.

What was measured:
SIK = assay: Nanosyn kinase profiling; type: biochemical, human
Procedure: Percentage inhibition was determined for each kinase at both 0.1 µM and 1 µM inhibitor concentration (supplemental Table S2). […]. […]. When visualized on a kinase phylogenetic tree, these were primarily clustered within the receptor tyrosine kinases (TKs) as well as the calmodulin-dependent kinases (CAMKs) (Figure 2C).
Inhibitor selectivity profiling against 200 human kinases at 0.1 and 1 µM inhibitor concentration was performed by Nanosyn (www.nanosyn.com).

PKN1 = target: T1, PKN1 (Homo sapiens, UniProt Q16512); assay: DSF thermal shift; type: binding; details: 10 µM inhibitor; read-out: Tm shift
T1 construct: purchased Nanosyn (enzymatic panel); SGC in-house recombinant human kinases (DSF panel); Invitrogen (ALK1-6)
T1 sequence (Q16512 whole entry): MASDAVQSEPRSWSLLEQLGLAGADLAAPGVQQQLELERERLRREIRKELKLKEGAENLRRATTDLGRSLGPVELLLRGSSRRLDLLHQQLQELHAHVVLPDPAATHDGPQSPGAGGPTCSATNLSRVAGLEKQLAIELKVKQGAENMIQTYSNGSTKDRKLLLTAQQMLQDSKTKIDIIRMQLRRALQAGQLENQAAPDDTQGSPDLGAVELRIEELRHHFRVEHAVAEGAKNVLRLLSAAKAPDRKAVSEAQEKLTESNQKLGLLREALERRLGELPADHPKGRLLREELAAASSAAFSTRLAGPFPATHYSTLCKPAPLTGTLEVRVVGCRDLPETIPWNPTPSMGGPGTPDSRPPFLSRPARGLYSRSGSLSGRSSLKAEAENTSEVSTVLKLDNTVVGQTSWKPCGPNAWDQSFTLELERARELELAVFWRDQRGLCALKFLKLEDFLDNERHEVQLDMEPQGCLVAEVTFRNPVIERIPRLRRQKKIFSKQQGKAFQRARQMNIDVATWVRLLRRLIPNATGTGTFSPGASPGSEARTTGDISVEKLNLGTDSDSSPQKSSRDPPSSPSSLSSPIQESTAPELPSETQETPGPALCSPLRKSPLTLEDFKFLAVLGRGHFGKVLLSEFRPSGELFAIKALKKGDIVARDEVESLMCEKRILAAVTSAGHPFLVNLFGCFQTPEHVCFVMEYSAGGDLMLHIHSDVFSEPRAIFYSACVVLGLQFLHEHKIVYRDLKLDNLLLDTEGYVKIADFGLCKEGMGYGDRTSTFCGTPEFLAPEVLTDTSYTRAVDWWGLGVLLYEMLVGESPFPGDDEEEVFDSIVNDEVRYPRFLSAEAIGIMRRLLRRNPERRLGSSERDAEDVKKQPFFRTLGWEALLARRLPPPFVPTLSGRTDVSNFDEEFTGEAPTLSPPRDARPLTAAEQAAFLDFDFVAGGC
Outline: (§1)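 Thermal melt, qPCR cycler; kinase 1–2 µM, compound 10 µM.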

OSR1 = target: T2, OSR1 (Homo sapiens, UniProt O95747); assay: DSF thermal shift; type: binding; details: 10 µM inhibitor; read-out: Tm shift
T2 construct: purchased Nanosyn (enzymatic panel); SGC in-house recombinant human kinases (DSF panel); Invitrogen (ALK1-6)
T2 sequence (O95747 whole entry): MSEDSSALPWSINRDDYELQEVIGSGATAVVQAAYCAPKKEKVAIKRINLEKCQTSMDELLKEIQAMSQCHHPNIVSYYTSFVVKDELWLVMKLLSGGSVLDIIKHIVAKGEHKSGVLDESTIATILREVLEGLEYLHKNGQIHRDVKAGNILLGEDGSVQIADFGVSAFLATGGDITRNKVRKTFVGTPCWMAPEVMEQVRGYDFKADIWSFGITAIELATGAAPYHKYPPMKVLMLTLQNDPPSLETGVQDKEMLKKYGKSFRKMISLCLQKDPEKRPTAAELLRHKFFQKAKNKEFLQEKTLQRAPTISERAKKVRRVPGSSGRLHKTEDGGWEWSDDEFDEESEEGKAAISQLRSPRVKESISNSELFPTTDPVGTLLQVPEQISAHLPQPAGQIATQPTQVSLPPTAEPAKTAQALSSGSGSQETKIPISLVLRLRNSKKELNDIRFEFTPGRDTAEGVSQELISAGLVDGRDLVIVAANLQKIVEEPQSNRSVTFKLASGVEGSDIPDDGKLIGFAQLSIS
Outline: as §1

GRK1 = target: T3, GRK1 (Homo sapiens, UniProt Q15835); assay: DSF thermal shift; type: binding; details: 10 µM inhibitor; read-out: Tm shift
T3 construct: purchased Nanosyn (enzymatic panel); SGC in-house recombinant human kinases (DSF panel); Invitrogen (ALK1-6)
T3 sequence (Q15835 1-563): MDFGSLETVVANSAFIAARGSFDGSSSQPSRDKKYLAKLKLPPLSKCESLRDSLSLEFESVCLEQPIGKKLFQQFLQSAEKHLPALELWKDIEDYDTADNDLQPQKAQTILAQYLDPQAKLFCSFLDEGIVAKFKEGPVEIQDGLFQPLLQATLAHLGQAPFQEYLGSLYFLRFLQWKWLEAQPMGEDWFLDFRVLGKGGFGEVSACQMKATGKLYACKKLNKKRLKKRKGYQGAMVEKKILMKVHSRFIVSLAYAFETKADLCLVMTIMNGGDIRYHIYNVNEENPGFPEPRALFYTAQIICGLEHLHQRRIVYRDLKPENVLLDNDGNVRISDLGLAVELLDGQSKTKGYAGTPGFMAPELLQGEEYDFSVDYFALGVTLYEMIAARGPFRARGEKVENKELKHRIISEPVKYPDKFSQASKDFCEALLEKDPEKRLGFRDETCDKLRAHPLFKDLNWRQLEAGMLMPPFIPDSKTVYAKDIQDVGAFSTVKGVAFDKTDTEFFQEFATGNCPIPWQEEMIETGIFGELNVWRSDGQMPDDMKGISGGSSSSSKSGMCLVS
Outline: as §1

PIM3 = target: T4, PIM3 (Homo sapiens, UniProt Q86V86); assay: DSF thermal shift; type: binding; details: 10 µM inhibitor; read-out: Tm shift
T4 construct: purchased Nanosyn (enzymatic panel); SGC in-house recombinant human kinases (DSF panel); Invitrogen (ALK1-6)
Outline: as §1

[1] = test system: Tg(fli1a:eGFP) zebrafish embryos; assay: Intersomitic vessel (ISV) formation in zebrafish embryos; type: in vivo; details: treated from 12 hpf, scored at 48 hpf
Procedure: The zebrafish colony was maintained as described and embryos were raised at 28.5°C. The Tg(BRE:mRFP) transgenic line (also called BRE-mRFP) has been described previously and expresses mRFP in response to BMP signaling. […] Inhibitor stocks were diluted in DMSO and then further diluted in fish water to give the required inhibitor concentrations. To minimize the amount of inhibitors used, experiments were performed in 24-well plates with approximately 20 embryos per well in a volume of 1 mL. The chemical treatment was applied by immersing 8- to 16-cell stage Tg(BRE:mRFP) embryos (dorsalization experiment) or 12 hours old […]) embryos (ISV experiment) in the fish water supplemented with DMSO or the chemical inhibitors. For the ISV experiment, embryos were manually dechorionated after bud stage before treatment. Embryos were scored and photographed at 26 or 48 hours.

[2] = test system: BMP4 induced Smad1/5/8 phosphorylation in C2C12 cells; assay: BMP4 induced Smad1/5/8 phosphorylation, Western blot; type: cell-based; details: for IC50: Mus musculus
Procedure: (§2) C2C12 and HEK293 cells were grown in DMEM supplemented with 10% FCS (PAA) and seeded at a density of 1 x 10^5 cells per well in 6-well plates. The next day the cells were starved in DMEM containing 1% FCS for 5 hours. Inhibitors were added at the indicated concentrations for 30 minutes followed by 10 ng/mL BMP4 (Peprotech), 100 ng/mL BMP6 (Peprotech), 100 ng/mL Activin A (Peprotech) or 2 ng/mL TGF-β1 (Cell Signaling) for 1 hour. Cells were washed in PBS and lysed on ice for 30 minutes in lysis buffer (20 mM Tris-HCl pH 7.5, 150 mM NaCl, 1% Triton X-100, 25 mM NaF, 25 mM Na β-glycerophosphate, 2 mM Na3VO4) containing protease inhibitors (Roche). Protein concentration in the clarified lysate was determined by Bradford Assay (Pierce) and 15 µg run on 4–12% Bis-Tris gel (Biorad). The protein was transferred onto nitrocellulose membrane (GE Healthcare) and probed with the relevant antibody at 4°C overnight (Cell Signaling: anti-Smad 1 (#9743), anti-P-Smad 1/5/8 (#9511), anti-Smad 2 (#5339), anti-P-Smad 2 (#3101). After subsequent incubation with HRP-conjugated anti-rabbit antibody, protein bands were detected using ECL (Pierce) and an LAS4000 image reader. Cells were purchased originally from the European Collection of Cell Cultures (ECACC) available through Sigma.

[3] = test system: BMP4 response (BRE-luciferase) in C2C12 cells; assay: BRE-luciferase reporter assay; type: cell-based
Procedure: C2C12 cells were co-transfected using lipofectamine 2000 with BRE-luciferase and Renilla Luciferase pRLTK (Promega) following the manufacturer’s instructions. 16 hours post transfection cells were starved in DMEM containing 1% FCS for 5 hours. Inhibitors were added to triplicate wells at the indicated concentrations for 30 minutes, followed by overnight stimulation with 10 ng/ml BMP4 (Peprotech). Luciferase activities were determined according to the Dual-Luciferase® Reporter Assay System (Promega) using Renilla for normalization of transfection efficiency.

[4] = test system: BMP6-induced Smad1/5/8 phosphorylation in C2C12 cells; assay: BMP6-induced Smad1/5/8 phosphorylation, Western blot; type: cell-based; details: for inhibition of BMP6-induced Smad1/5/8 phosphorylation: qualitative
Procedure: as §2

[5] = test system: TGF-β-induced phosphorylation of Smad2 in C2C12 cells; assay: TGF-β-induced phosphorylation of Smad2, Western blot; type: cell-based; details: qualitative
Procedure: as §2

KDR = test system: KDR; parameters: method as in PMID 20020776; details: read-out: reported KDR IC50; cited from earlier work

Percentage inhibition (SIK; 0.1 µM inhibitor) | ΔTm at 10 µM (PKN1) | ΔTm at 10 µM (OSR1) | ΔTm at 10 µM (GRK1) | ΔTm at 10 µM (PIM3) | ISV formation phenotype ([1]; 10–20 µM) | IC50 ([2]; C2C12 cells, BMP4 stimulation, read-out: apparent IC50, Smad1/5/8 phosphorylation) | IC50 ([4]; Mus musculus, read-out: IC50 against BMP6 signaling) | SMILES | Percentage inhibition (SIK; 1 µM inhibitor) | ISV formation phenotype ([1]; 10 µM) | activity weaker than control compound LDN-193189 ([2]; C2C12 cells, BMP4, P-Smad1/5/8) | activity weaker than control compound LDN-193189 ([3]; C2C12 cells, BMP4, BRE-luciferase) | inhibition of Smad1/5/8 phosphorylation ([4]; 50 nM, BMP6) | inhibition of BMP6-induced Smad1/5/8 phosphorylation [4] | effect on TGF-β-induced phosphorylation of Smad2 [5] | Percentage inhibition (SIK; 0.1 µM inhibitor, 0.1 µM) | IC50 (KDR) | IC50 ([2]; C2C12, read-out: apparent IC50, Smad1/5/8 phosphorylation) | IC50 ([3]; Mus musculus, C2C12, read-out: IC50, BRE-luciferase)
9.4% | 0.5 °C | 0 °C | 0 °C | -0.2 °C | no ISV defects | 100 nM | < 50 nM | COc1cc(-c2cc(-c3cccc(O)c3)cnc2N)cc(OC)c1OC [K02288, 3-[6-amino-5-(3,4,5-trimethoxy-phenyl)-pyridin-3-yl]-phenol] | 57% | no phenotype | 10 fold | 10 fold | near complete inhibition | potently inhibited | no effect |  |  |  | 
 | 2.3 °C | 1.6 °C | 0.4 °C | 0.6 °C |  |  |  | c1cc(-c2cnn3cc(-c4ccc(OCCN5CCCCC5)cc4)cnc23)ccn1 [Dorsomorphin] |  | defects in intersomitic vessel (ISV) formation |  |  |  |  |  |  | 25 nM |  | 

SMILES | Percentage inhibition (SIK; 0.1 µM inhibitor) | ΔTm at 10 µM (PKN1) | ΔTm at 10 µM (OSR1) | ΔTm at 10 µM (GRK1) | ΔTm at 10 µM (PIM3) | ISV formation phenotype ([1]; 10–20 µM) | IC50 ([2]; C2C12 cells, BMP4 stimulation, read-out: apparent IC50, Smad1/5/8 phosphorylation) | IC50 ([4]; Mus musculus, read-out: IC50 against BMP6 signaling) | Percentage inhibition (SIK; 1 µM inhibitor) | ISV formation phenotype ([1]; 10 µM) | activity weaker than control compound LDN-193189 ([2]; C2C12 cells, BMP4, P-Smad1/5/8) | activity weaker than control compound LDN-193189 ([3]; C2C12 cells, BMP4, BRE-luciferase) | inhibition of Smad1/5/8 phosphorylation ([4]; 50 nM, BMP6) | inhibition of BMP6-induced Smad1/5/8 phosphorylation [4] | effect on TGF-β-induced phosphorylation of Smad2 [5] | Percentage inhibition (SIK; 0.1 µM inhibitor, 0.1 µM) | IC50 (KDR) | IC50 ([2]; C2C12, read-out: apparent IC50, Smad1/5/8 phosphorylation) | IC50 ([3]; Mus musculus, C2C12, read-out: IC50, BRE-luciferase)
c1ccc2c(-c3cnn4cc(-c5ccc(N6CCNCC6)cc5)cnc34)ccnc2c1 [LDN-193189] |  | 2.3 °C | 0.9 °C | -0.7 °C | -0.2 °C |  |  |  | 96% | defects in intersomitic vessel (ISV) formation; also recorded: weak ISV defects |  |  |  | potently inhibited | no effect | 63% and > 50% | 215 nM | 10 nM | 10 nM
